Source: patent US20260234107A1, “TRYPTAMINES AND METHODS OF TREATING MOOD DISORDERS” (priority 2022, published 2026)

Key:
[1] = Plasma pharmacokinetics in mice after subcutaneous administration; format: in vivo, male C57BL/6 mice; details: plasma, male C57BL/6 mice, SC 10 mg/kg
Description: Animals. […] Four mice were housed in each cage. […] All animals were provided laboratory rodent diet. […] Animals were randomly assigned to treatment groups.

[2] = system: monoamine oxidase A and B (MAO-A and MAO-B); assay: Stability in the presence of monoamine oxidases (human liver mitochondria preparation); parameters: half-life / microsomal CLint: dose or concentration left out as unconfirmed; details: for stability in the presence of MAO (in words): human liver mitochondria preparation; for Remaining (t = 60 min) / half-life / microsomal CLint: human liver mitochondria; for half-life / microsomal CLint: human, pH 7.4
Procedure: Liver Mitochondria Incubations. Human liver mitochondria (Xenotech H0610.M) were used.

5-HT2A = 5-HT2A (Homo sapiens, UniProt P28223); assay: 5-HT2A receptor radioligand binding ([3H]ketanserin)
Procedure: The binding affinities of disclosed compounds at the ketanserin binding site of the 5-HT2A receptor were determined in radioligand binding experiments.
Method. Affinity of the test compounds for the 5-HT2A receptor was determined in radioligand binding experiments with [^3H]ketanserin by WuXi AppTec (Hong Kong) Limited, using methods adapted from the literature and under conditions described in Table 4.

5-HT2B = biological target: T1, 5-HT2B (Homo sapiens, UniProt P41595); assay: FLIPR Ca2+ flux agonist assay at 5-HT2B; format: cell-based; details: for 5-HT2B % Act @ Max Dose: Ca2+ flux, HEK293, max dose
T1 construct: host or cells: HEK293

[3] = Stability in rat brain homogenate; format: in vitro ADME, male Sprague Dawley rats; details: rat brain homogenate, 1 μM, 37° C.; for half-life at 1 µM: male, Sprague Dawley
[4] = human liver mitochondria 0.30 mg protein/mL, 37° C.

T1 sequence (P41595 whole entry, species assumed): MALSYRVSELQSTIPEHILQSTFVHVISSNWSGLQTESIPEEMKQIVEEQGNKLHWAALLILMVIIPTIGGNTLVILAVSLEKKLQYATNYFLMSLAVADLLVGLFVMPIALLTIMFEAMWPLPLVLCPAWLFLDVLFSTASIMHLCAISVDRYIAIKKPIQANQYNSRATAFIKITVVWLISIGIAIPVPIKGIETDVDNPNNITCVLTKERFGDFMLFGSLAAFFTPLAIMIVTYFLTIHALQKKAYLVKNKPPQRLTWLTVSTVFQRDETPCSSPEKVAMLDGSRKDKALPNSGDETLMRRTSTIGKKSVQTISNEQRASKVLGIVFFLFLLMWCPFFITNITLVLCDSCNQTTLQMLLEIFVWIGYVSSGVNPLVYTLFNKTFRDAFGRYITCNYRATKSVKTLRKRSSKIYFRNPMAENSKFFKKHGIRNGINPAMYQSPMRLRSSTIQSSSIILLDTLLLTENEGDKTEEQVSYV
Sequence of 5-HT2A (P28223 whole entry): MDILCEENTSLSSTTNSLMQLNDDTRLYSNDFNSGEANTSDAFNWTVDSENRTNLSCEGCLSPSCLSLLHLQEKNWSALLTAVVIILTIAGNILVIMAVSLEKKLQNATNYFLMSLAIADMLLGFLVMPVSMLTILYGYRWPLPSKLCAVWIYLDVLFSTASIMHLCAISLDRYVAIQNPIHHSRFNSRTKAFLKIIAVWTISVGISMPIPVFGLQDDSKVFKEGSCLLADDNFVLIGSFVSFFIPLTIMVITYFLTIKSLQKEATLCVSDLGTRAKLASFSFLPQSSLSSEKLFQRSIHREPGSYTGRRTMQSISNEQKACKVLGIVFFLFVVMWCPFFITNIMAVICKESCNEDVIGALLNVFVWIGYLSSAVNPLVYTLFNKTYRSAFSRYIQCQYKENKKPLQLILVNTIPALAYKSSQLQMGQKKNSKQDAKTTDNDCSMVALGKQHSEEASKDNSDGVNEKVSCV

Row | Compound | AUC(0-t) ([1]; mouse) | Cmax ([1]; mouse) | Tmax [1] | t1/2 [1] | CLint(MAO) [2, 4] | t1/2 [2, 4] | stability in the presence of MAO (in words) [2] | Remaining (t = 60 min) [2] | Ki (5-HT2A) | EC50 (5-HT2B) | 5-HT2B % Act @ Max Dose (5-HT2B) | t1/2 [3] | % Compound Remaining (after 120 min) [3] | half-life [2] | microsomal CLint [2] | half-life at 1 µM [3]
1 | CN(C)CCc1c[nH]c2ccc(F)cc12 [Compound 5-F-DMT, reference compound] | 247 ng·h/mL | 363 ng/mL | 15 min | 16.2 min | 266 µL/min/mg | 8.7 min | rapidly metabolized by MAO | 0.9% | 0.181 µM | 0.00971 µM | 17.6% | 2.7 min | 0.0% |  |  | 
2 | CCNCCc1c[nH]c2ccc(F)c(O)c12 [Compound 28, 3-(2-(ethylamino)ethyl)-5-fluoro-1H-indol-4-ol] |  |  |  |  |  |  | intermediate stability | 46.4% | 0.319 µM | 0.0386 µM | 19.83% |  | 0.4% | 56.5 min | 40.9 µL/min/mg | 15.4 min
3 | CC(C)NCCc1c[nH]c2ccc(F)c(O)c12 [Compound 35, 5-fluoro-3-(2-(isopropylamino)ethyl)-1H-indol-4-ol] |  |  |  |  |  |  | intermediate stability | 22.8% | 0.446 µM | 0.0959 µM | 27.19% |  | 16.4% | 29 min | 79.6 µL/min/mg | 45.6 min
